This is an account of results in patent US9969742B2, “Imidazotriazinone compounds” (Ironwood Pharmaceuticals, Inc., priority 2012, dated 2018).

Read-outs that look alike come from different tables or passages of the source. Where only a bound is given, the exact number is not on record here.

What all share (type): biochemical
In one experiment the target is T1, PDE1A (Homo sapiens, UniProt P54750).
T1 construct: purchased Reaction Biology Corporation, Malvern, Pa
Nature of the experiment: Phosphodiesterase enzyme screening assay, PDE1A. The method, boiled down: (§1)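 Recombinant enzymes were run in 100 mM HEPES pH 7.5, 5 mM MgCl2, 1 mM DTT, 0.003% Brij with 4.0 μM cGMP substrate, started with cGMP or cAMP, 1 h at RT, and stopped with EDTA. Fluorescent substrate and product were separated by microfluidic mobility shift.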

Another experiment addresses T2, PDE1B (Homo sapiens, UniProt Q01064).
T2 construct: purchased Reaction Biology Corporation, Malvern, Pa
Nature of the experiment: Phosphodiesterase enzyme screening assay, PDE1B. The method, boiled down: as §1

The target in a further experiment is T3, PDE9A2 (Homo sapiens, UniProt O76083).
T3 construct: purchased Reaction Biology Corporation, Malvern, Pa
Nature of the experiment: Phosphodiesterase enzyme screening assay, PDE9A2. The method, boiled down:
as §1

Where [1] appears, read: Table 1, ratio of IC50 values, value greater than 1 indicates greater selectivity for PDE9A2.
The mark [2] stands for this setting: Table 1, 10 concentrations, 4.0 μM cGMP substrate, 1 hour at R.T., read-out: Band (PDE9A2 IC50).
Setting [3] is: ratio of IC50 values PDE1A / PDE9A2, value greater than 1 = greater selectivity for PDE9A2.
Setting [4] is: ratio of IC50 values PDE1B / PDE9A2, value greater than 1 = greater selectivity for PDE9A2.
The mark [5] stands for this setting: 4.0 μM cGMP substrate, 1 hour at R.T., read-out: Band (PDE9A2 IC50).
Where [6] appears, read: ratio of IC50 values PDE1A vs PDE9A2, value greater than 1 indicates greater selectivity for PDE9A2.
Where [7] appears, read: ratio of IC50 values PDE1B vs PDE9A2, value greater than 1 indicates greater selectivity for PDE9A2.
The mark [8] stands for this setting: IC50 band, 4.0 μM cGMP substrate, 1 hour at R.T.

T2 sequence (Q01064 whole entry): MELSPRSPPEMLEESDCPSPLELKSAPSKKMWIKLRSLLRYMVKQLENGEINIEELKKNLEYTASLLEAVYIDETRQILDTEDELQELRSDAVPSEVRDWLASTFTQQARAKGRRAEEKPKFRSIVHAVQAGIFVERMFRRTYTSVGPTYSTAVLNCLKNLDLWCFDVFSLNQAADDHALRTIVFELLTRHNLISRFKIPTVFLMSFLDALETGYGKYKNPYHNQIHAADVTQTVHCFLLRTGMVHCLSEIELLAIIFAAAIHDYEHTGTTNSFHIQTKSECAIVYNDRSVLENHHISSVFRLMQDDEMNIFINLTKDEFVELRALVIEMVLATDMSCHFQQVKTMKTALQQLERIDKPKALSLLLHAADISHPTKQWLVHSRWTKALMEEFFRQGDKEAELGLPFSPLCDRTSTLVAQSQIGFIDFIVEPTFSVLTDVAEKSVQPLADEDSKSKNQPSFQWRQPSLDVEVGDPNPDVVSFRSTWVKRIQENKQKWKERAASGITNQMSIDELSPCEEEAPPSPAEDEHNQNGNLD
T3 sequence (O76083 1-533 isoform O76083-2): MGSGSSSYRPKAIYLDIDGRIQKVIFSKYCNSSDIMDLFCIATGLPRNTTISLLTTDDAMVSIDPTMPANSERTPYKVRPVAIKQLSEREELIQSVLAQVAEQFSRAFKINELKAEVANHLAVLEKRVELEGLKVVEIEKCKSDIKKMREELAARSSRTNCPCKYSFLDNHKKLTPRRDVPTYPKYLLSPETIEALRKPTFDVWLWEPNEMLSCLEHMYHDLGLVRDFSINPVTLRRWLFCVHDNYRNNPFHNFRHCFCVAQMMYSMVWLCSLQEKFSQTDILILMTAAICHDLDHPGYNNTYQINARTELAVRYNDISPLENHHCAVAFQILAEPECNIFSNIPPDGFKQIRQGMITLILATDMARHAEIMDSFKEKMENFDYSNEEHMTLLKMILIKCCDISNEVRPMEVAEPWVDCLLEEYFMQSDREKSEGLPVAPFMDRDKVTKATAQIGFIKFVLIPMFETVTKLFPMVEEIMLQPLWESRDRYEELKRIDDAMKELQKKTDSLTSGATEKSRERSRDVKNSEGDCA
T1 sequence (P54750 whole entry): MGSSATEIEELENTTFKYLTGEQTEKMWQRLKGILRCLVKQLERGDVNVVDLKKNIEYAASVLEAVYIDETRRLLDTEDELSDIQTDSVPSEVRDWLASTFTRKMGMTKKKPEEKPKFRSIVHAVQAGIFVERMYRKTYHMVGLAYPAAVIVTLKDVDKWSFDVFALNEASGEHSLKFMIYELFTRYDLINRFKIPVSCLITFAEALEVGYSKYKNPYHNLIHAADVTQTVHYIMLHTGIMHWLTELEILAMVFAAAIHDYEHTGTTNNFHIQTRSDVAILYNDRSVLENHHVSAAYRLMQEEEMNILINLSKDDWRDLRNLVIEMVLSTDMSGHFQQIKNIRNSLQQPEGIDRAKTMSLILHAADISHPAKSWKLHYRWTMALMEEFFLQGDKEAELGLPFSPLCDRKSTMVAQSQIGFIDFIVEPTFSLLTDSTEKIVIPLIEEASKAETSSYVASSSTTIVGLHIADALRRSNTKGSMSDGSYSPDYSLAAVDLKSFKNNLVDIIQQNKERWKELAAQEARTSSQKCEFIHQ

As usually defined, the IC50 is the midpoint of a concentration-inhibition curve. For `Cc1cc(F)c(F)cc1-c1ncc2c(=O)[nH]c(C3CN(Cc4nc5ccccn5n4)CC3C)nn12` (single isomer, unassigned; (+)) [(+)-2-((3,4-trans)-1-([1,2,4]triazolo[1,5-a]pyridin-2-ylmethyl)-4-methylpyrrolidin-3-yl)-7-(4,5-difluoro-2-methylphenyl)imidazo[5,1-f][1,2,4]triazin-4(3H)-one], the “PDE1A selectivity (versus PDE9A2)” value at PDE1A (ratio of IC50 values, PDE1A versus PDE9A2, value greater than 1 indicates greater selectivity for PDE9A2) came out at 1000. The “PDE1B selectivity (versus PDE9A2)” value at PDE1B (ratio of IC50 values, PDE1B versus PDE9A2, value greater than 1 indicates greater selectivity for PDE9A2) was 2140. In addition, the IC50 on PDE9A2 (read-out: Band (PDE9A2 IC50)) is < 1000 nM.
For the compound `Cc1ccc(CN2CC(C)C(c3nn4c(C5CCOCC5)ncc4c(=O)[nH]3)C2)cn1` (single isomer, unassigned; (+)) [(+)-2-((3,4-trans)-4-methyl-1-((6-methylpyridin-3-yl)methyl)pyrrolidin-3-yl)-7-(tetrahydro-2H-pyran-4-yl)imidazo[5,1-f][1,2,4]triazin-4(3H)-one], at PDE1A (setting [1]), the “PDE1A selectivity (versus PDE9A2)” value stood at 97. The “PDE1B selectivity (versus PDE9A2)” value at PDE1B (setting [1]) was 177. The IC50 at PDE9A2 (setting [2]) is < 1000 nM.
For `Cc1cc(CN2CC(C)C(c3nn4c(C5CCOCC5)ncc4c(=O)[nH]3)C2)ccc1Cl` (single isomer, unassigned; (+)) [(+)-2-((3,4-trans)-1-(4-chloro-3-methylbenzyl)-4-methylpyrrolidin-3-yl)-7-(tetrahydro-2H-pyran-4-yl)imidazo[5,1-f][1,2,4]triazin-4(3H)-one], on PDE1A (setting [3]), the “PDE1A selectivity (versus PDE9A2)” value is on record as 466. For the same compound, on PDE1B (setting [4]), the “PDE1B selectivity (versus PDE9A2)” value is 818. Further, on PDE9A2 (setting [5]), the IC50 was < 1000 nM.
In the case of `Cc1cccc(CN2CC(C)C(c3nn4c(C5CCOCC5)ncc4c(=O)[nH]3)C2)c1` (single isomer, unassigned; (+)) [(+)-2-((3,4-trans)-4-methyl-1-(3-methylbenzyl)pyrrolidin-3-yl)-7-(tetrahydro-2H-pyran-4-yl)imidazo[5,1-f][1,2,4]triazin-4(3H)-one], at PDE1A (setting [1]), the “PDE1A selectivity (versus PDE9A2)” value amounted to 442. Further, the “PDE1B selectivity (versus PDE9A2)” value at PDE1B (setting [1]) was found to be 402. Besides, the IC50 at PDE9A2 (setting [2]) was < 1000 nM.
Regarding `Cc1ncccc1CN1CC(C)C(c2nn3c(C4CCOCC4)ncc3c(=O)[nH]2)C1` (single isomer, unassigned; (+)) [(+)-2-((3,4-trans)-4-methyl-1-((2-methylpyridin-3-yl)methyl)pyrrolidin-3-yl)-7-(tetrahydro-2H-pyran-4-yl)imidazo[5,1-f][1,2,4]triazin-4(3H)-one], the “PDE1A selectivity (versus PDE9A2)” value at PDE1A (setting [3]) is given as 139. For the same compound, the “PDE1B selectivity (versus PDE9A2)” value on PDE1B (setting [4]) was 201. Further, at PDE9A2 (setting [5]), the 50% inhibitory concentration (IC50) was < 1000 nM.
The like results for `CC1CN(Cc2ccc(F)c(C#N)c2)CC1c1nn2c(C3CCOCC3)ncc2c(=O)[nH]1` (single isomer, unassigned; (+)) [(+)-2-fluoro-5-(((3,4-trans)-3-methyl-4-(4-oxo-7-(tetrahydro-2H-pyran-4-yl)-3,4-dihydroimidazo[5,1-f][1,2,4]triazin-2-yl)pyrrolidin-1-yl)methyl)benzonitrile] were, in that order, 61, 58 and < 1000 nM.
As to `Cc1ccc(F)cc1-c1ncc2c(=O)[nH]c(C3CN(Cc4ccc(F)cc4)CC3C)nn12` (single isomer, unassigned; (+)) [(+)-7-(5-fluoro-2-methylphenyl)-2-((3,4-trans)-1-(4-fluorobenzyl)-4-methylpyrrolidin-3-yl)imidazo[5,1-f][1,2,4]triazin-4(3H)-one], the “PDE1A selectivity (versus PDE9A2)” value at PDE1A (setting [6]) is given as 1738. In addition, the “PDE1B selectivity (versus PDE9A2)” value on PDE1B (setting [7]) worked out at 393. Further, at PDE9A2 (setting [8]), the IC50 was < 1000 nM.
Take `Cc1cc(F)ccc1-c1ncc2c(=O)[nH]c(C3CN(Cc4cnccn4)CC3C)nn12` (single isomer, unassigned; (+)) [(+)-7-(4-fluoro-2-methylphenyl)-2-((3,4-trans)-4-methyl-1-(pyrazin-2-ylmethyl)pyrrolidin-3-yl)imidazo[5,1-f][1,2,4]triazin-4(3H)-one]: the “PDE1A selectivity (versus PDE9A2)” value on PDE1A (setting [6]) was determined as 342. Moreover, the “PDE1B selectivity (versus PDE9A2)” value at PDE1B (setting [7]) turned out to be 393. In addition, the half-inhibitory concentration (IC50) at PDE9A2 (setting [8]) is < 1000 nM.
Consider `C[C@@H]1CN(Cc2ccc3cccnc3c2)C[C@H]1c1nn2c(C3CCOCC3)ncc2c(=O)[nH]1` (relative stereo) [(+)-2-((3,4-trans)-4-methyl-1-(quinolin-7-ylmethyl)pyrrolidin-3-yl)-7-(tetrahydro-2H-pyran-4-yl)imidazo[5,1-f][1,2,4]triazin-4(3H)-one], for which the “PDE1A selectivity (versus PDE9A2)” value on PDE1A (setting [1]) was found to be 5020. For the same compound, the “PDE1B selectivity (versus PDE9A2)” value at PDE1B (setting [1]) amounted to 5180. Further, on PDE9A2 (setting [2]), the IC50 is < 1000 nM.
The like results for `CC1CN(Cc2ccc(F)cc2)CC1c1nn2c(C3CCOCC3)ncc2c(=O)[nH]1` (single isomer, unassigned; (+)) [(+)-2-((3,4-trans)-1-(4-fluorobenzyl)-4-methylpyrrolidin-3-yl)-7-(tetrahydro-2H-pyran-4-yl)imidazo[5,1-f][1,2,4]triazin-4(3H)-one] were, in that order, 664, 714 and < 1000 nM.
For `CC1CN(Cc2cccc(C(F)(F)F)n2)CC1c1nn2c(C3CCOCC3)ncc2c(=O)[nH]1` (single isomer, unassigned; (+)) [(+)-2-((3,4-trans)-4-methyl-1-((6-(trifluoromethyl)pyridin-2-yl)methyl)pyrrolidin-3-yl)-7-(tetrahydro-2H-pyran-4-yl)imidazo[5,1-f][1,2,4]triazin-4(3H)-one], at PDE1A (ratio of IC50 values, PDE1A versus PDE9A2, value greater than 1 = greater selectivity for PDE9A2), the “PDE1A selectivity (versus PDE9A2)” value was determined as 708. For the same compound, at PDE1B (ratio of IC50 values, PDE1B versus PDE9A2, value greater than 1 = greater selectivity for PDE9A2), the “PDE1B selectivity (versus PDE9A2)” value is 389. On PDE9A2 (Table 3, 4.0 μM cGMP substrate, 1 hour at R.T., read-out: Band (PDE9A2 IC50)), the half-inhibitory concentration (IC50) was < 1000 nM.
Consider `CC1CN(Cc2cc(F)ccc2Cl)CC1c1nn2c(C3CCOCC3)ncc2c(=O)[nH]1` (single isomer, unassigned; (+)) [(+)-2-((3,4-trans)-1-(2-chloro-5-fluorobenzyl)-4-methylpyrrolidin-3-yl)-7-(tetrahydro-2H-pyran-4-yl)imidazo[5,1-f][1,2,4]triazin-4(3H)-one], for which the “PDE1A selectivity (versus PDE9A2)” value on PDE1A (setting [3]) was determined as 177. The “PDE1B selectivity (versus PDE9A2)” value on PDE1B (setting [4]) worked out at 73. In addition, at PDE9A2 (setting [5]), the IC50 is < 1000 nM.
On to `CCc1ncc(CN2CC(C)C(c3nn4c(C5CCOCC5)ncc4c(=O)[nH]3)C2)cn1` (single isomer, unassigned; (+)) [(+)-2-((3,4-trans)-1-((2-ethylpyrimidin-5-yl)methyl)-4-methylpyrrolidin-3-yl)-7-(tetrahydro-2H-pyran-4-yl)imidazo[5,1-f][1,2,4]triazin-4(3H)-one], for which, on PDE1A (setting [1]), the “PDE1A selectivity (versus PDE9A2)” value came to 855. Besides, at PDE1B (setting [1]), the “PDE1B selectivity (versus PDE9A2)” value was 1920. Moreover, on PDE9A2 (setting [2]), the IC50 was < 1000 nM.
The like results for `CC1CN(Cc2cc(Cl)ccc2Cl)CC1c1nn2c(C3CCOCC3)ncc2c(=O)[nH]1` (single isomer, unassigned; (+)) [(+)-2-((3,4-trans)-1-(2,5-dichlorobenzyl)-4-methylpyrrolidin-3-yl)-7-(tetrahydro-2H-pyran-4-yl)imidazo[5,1-f][1,2,4]triazin-4(3H)-one] were, in that order, 274, 90 and < 1000 nM.
The like results for `CC1CN(Cc2ccccc2F)CC1c1nn2c(C3CCOCC3)ncc2c(=O)[nH]1` (single isomer, unassigned; (+)) [(+)-2-((3,4-trans)-1-(2-fluorobenzyl)-4-methylpyrrolidin-3-yl)-7-(tetrahydro-2H-pyran-4-yl)imidazo[5,1-f][1,2,4]triazin-4(3H)-one] were, in that order, 300, 442 and < 1000 nM.
The like results for `CC1CN(Cc2cccc(C(F)(F)F)c2)CC1c1nn2c(C3CCOCC3)ncc2c(=O)[nH]1` (single isomer, unassigned; (+)) [(+)-2-((3,4-trans)-4-methyl-1-(3-(trifluoromethyl)benzyl)pyrrolidin-3-yl)-7-(tetrahydro-2H-pyran-4-yl)imidazo[5,1-f][1,2,4]triazin-4(3H)-one] were, in that order, 203, 86 and < 1000 nM.
Consider `COc1cccc(CN2CC(C)C(c3nn4c(C5CCOCC5)ncc4c(=O)[nH]3)C2)n1` (single isomer, unassigned; (+)) [(+)-2-((3,4-trans)-1-((6-methoxypyridin-2-yl)methyl)-4-methylpyrrolidin-3-yl)-7-(tetrahydro-2H-pyran-4-yl)imidazo[5,1-f][1,2,4]triazin-4(3H)-one], for which, on PDE1A (setting [1]), the “PDE1A selectivity (versus PDE9A2)” value came out at 579. The “PDE1B selectivity (versus PDE9A2)” value at PDE1B (setting [1]) was 571. In addition, the concentration for half-maximal inhibition (IC50) at PDE9A2 (setting [2]) is < 1000 nM.
For `CC1CN(Cc2cccc(F)c2F)CC1c1nn2c(C3CCOCC3)ncc2c(=O)[nH]1` (single isomer, unassigned; (+)) [(+)-2-((3,4-trans)-1-(2,3-difluorobenzyl)-4-methylpyrrolidin-3-yl)-7-(tetrahydro-2H-pyran-4-yl)imidazo[5,1-f][1,2,4]triazin-4(3H)-one] the same measures were 159, 218 and < 1000 nM.
